Reference: ChEMBL document CHEMBL1139671, “Nuphar alkaloids with immediately apoptosis-inducing activity from Nuphar pumilum and their structural requirements for the activity” (2006)
Calls of active or inactive are those of the source. No cut-off for these calls is given here.

Assays:
U-937 [1] = assay: Cytotoxicity against U937 cells at 1.0 uM after 72 hrs; type: functional; details: Homo sapiens, U-937, 72 h
HT-1080 [2] = assay: Cytotoxicity against HT1080 cells at 10 uM after 72 hrs; type: functional; details: Homo sapiens, HT-1080, 72 h
HT-1080 [3] = assay: Cytotoxicity against HT1080 cells at 1.0 uM after 72 hrs; type: functional; details: Homo sapiens, HT-1080, 72 h
B16-F10 [4] = assay: Cytotoxicity against B16F10 cells at 1.0 uM after 72 hrs; type: functional; details: Mus musculus, B16-F10, 72 h
B16-F10 [5] = assay: Cytotoxicity against B16F10 cells at 10 uM after 72 hrs; type: functional; details: Mus musculus, B16-F10, 72 h
U-937 [6] = assay: Cytotoxicity against U937 cells at 10 uM after 72 hrs; type: functional; details: Homo sapiens, U-937, 72 h
HT-1080 [7] = assay: Cytotoxicity against HT1080 cells at 0.1 uM after 72 hrs; type: functional; details: Homo sapiens, HT-1080, 72 h
B16-F10 [8] = assay: Cytotoxicity against B16F10 cells at 0.1 uM after 72 hrs; type: functional; details: Mus musculus, B16-F10, 72 h
B16-F10 [9] = assay: Cytotoxicity against B16F10 cells at 1.0 uM after 48 hrs; type: functional; details: Mus musculus, B16-F10, 48 h
U-937 [10] = assay: Cytotoxicity against U937 cells at 10 uM after 48 hrs; type: functional; details: Homo sapiens, U-937, 48 h
U-937 [11] = assay: Cytotoxicity against U937 cells at 10 uM after 24 hrs; type: functional; details: Homo sapiens, U-937, 24 h
U-937 [12] = assay: Cytotoxicity against U937 cells at 1.0 uM after 48 hrs; type: functional; details: Homo sapiens, U-937, 48 h
HT-1080 [13] = assay: Cytotoxicity against HT1080 cells at 0.1 uM after 24 hrs; type: functional; details: Homo sapiens, HT-1080, 24 h
B16-F10 [14] = assay: Cytotoxicity against B16F10 cells at 10 uM after 24 hrs; type: functional; details: Mus musculus, B16-F10, 24 h
U-937 [15] = assay: Cytotoxicity against U937 cells at 1.0 uM after 24 hrs; type: functional; details: Homo sapiens, U-937, 24 h
B16-F10 [16] = assay: Cytotoxicity against B16F10 cells at 1.0 uM after 24 hrs; type: functional; details: Mus musculus, B16-F10, 24 h
HT-1080 [17] = assay: Cytotoxicity against HT1080 cells at 0.1 uM after 48 hrs; type: functional; details: Homo sapiens, HT-1080, 48 h
HT-1080 [18] = assay: Cytotoxicity against HT1080 cells at 1.0 uM after 24 hrs; type: functional; details: Homo sapiens, HT-1080, 24 h
HT-1080 [19] = assay: Cytotoxicity against HT1080 cells at 10 uM after 48 hrs; type: functional; details: Homo sapiens, HT-1080, 48 h
HT-1080 [20] = assay: Cytotoxicity against HT1080 cells at 1.0 uM after 48 hrs; type: functional; details: Homo sapiens, HT-1080, 48 h
B16-F10 [21] = assay: Cytotoxicity against B16F10 cells at 0.1 uM after 48 hrs; type: functional; details: Mus musculus, B16-F10, 48 h
B16-F10 [22] = assay: Cytotoxicity against B16F10 cells at 10 uM after 48 hrs; type: functional; details: Mus musculus, B16-F10, 48 h
HT-1080 [23] = assay: Cytotoxicity against HT1080 cells at 10 uM after 24 hrs; type: functional; details: Homo sapiens, HT-1080, 24 h
U-937 [24] = assay: Induction of apoptosis in U937 cells by DNA fragmentation assay; type: functional, cell-based; details: Homo sapiens

Compound	inhibition at 1 µM (U-937 [1]) [%]	inhibition at 10 µM (HT-1080 [2]) [%]	inhibition at 1 µM (HT-1080 [3]) [%]	inhibition at 1 µM (B16-F10 [4]) [%]	inhibition at 10 µM (B16-F10 [5]) [%]	inhibition at 10 µM (U-937 [6]) [%]	inhibition at 0.1 µM (HT-1080 [7]) [%]	inhibition at 0.1 µM (B16-F10 [8]) [%]	inhibition at 1 µM (B16-F10 [9]) [%]	inhibition at 10 µM (U-937 [10]) [%]	inhibition at 10 µM (U-937 [11]) [%]	inhibition at 1 µM (U-937 [12]) [%]	inhibition at 1 µM (U-937 [15]) [%]	inhibition at 0.1 µM (HT-1080 [17]) [%]	inhibition at 10 µM (HT-1080 [19]) [%]	inhibition at 1 µM (HT-1080 [20]) [%]	inhibition at 0.1 µM (B16-F10 [21]) [%]	inhibition at 10 µM (B16-F10 [22]) [%]	other results
COc1cc([C@H]2Oc3c(OC)cc(CCCO)cc3[C@@H]2CO)ccc1O [DIHYDRODEHYDRODICONIFERY ALCOHOL]	9.3	11.9	5.2	-5.3	-6.5	13.4	8.9	-2.4											
C[C@@H]1CC[C@H]2[C@H](C)CC[C@@H](c3ccoc3)N2C1 [(-)-7-EPI-DEOXYNUPHARIDINE]	6.4	-10.1	-6.6	-9.8	-7.9	8		-1.5											
C[C@@H]1CC[C@@H](c2ccoc2)N2C[C@]3(CC[C@@H]12)C[S+]([O-])[C@]1(CC[C@H]2[C@H](C)CC[C@@H](c4ccoc4)N2C1)C3 (stereo not given in full)	5.8	6.8	-1.8	7.7	9.1	10	-0.4	-3.7											
C[C@@H]1CC[C@@H](c2ccoc2)N2C[C@](C)(O)CC[C@@H]12 [NUPHAROLUTINE]	12.5	-16.7	-13.2	-1.2	-0.9	2.8	-12.9	-3.1											
C[C@H]1CC[C@H]2[C@H](C)CC[C@@H](c3ccoc3)[N+]2([O-])C1 (stereo not given in full) [NUPHARIDINE]	8	-9	-9	5.3	4.1	11.5	-3.3	0.6											
C[C@@H]1CC[C@@H](c2ccoc2)N2C[C@@]3(CC[C@@H]12)CS[C@]1(CC[C@H]2[C@H](C)CC[C@@H](c4ccoc4)N2[C@@H]1O)C3 [6-HYDROXYTHIONUPHLUTINE B]	85.3	98.7	63.5	69.3	99.1	94.1	1	0.9	65	91.3	80	89	74.6	8.6	98	53.3	0.3	98.2	inhibition at 0.1 µM (HT-1080 [13]): 6.3%; inhibition at 10 µM (B16-F10 [14]): 91.5%; inhibition at 1 µM (B16-F10 [16]): -22.9%; inhibition at 1 µM (HT-1080 [18]): 42%; inhibition at 10 µM (HT-1080 [23]): 95.9%
C[C@@H]1CC[C@@H](c2ccoc2)N2C[C@@]3(CC[C@@H]12)C[C@]1(CC[C@H]2[C@H](C)CC[C@@H](c4ccoc4)N2[C@@H]1O)CS3 [6'-HYDROXYTHIONUPHLUTINE B]	0.1	-9.1	-7.3	-1.6	-4.8	0.5	-9.8	1.7											
C[C@@H]1CC[C@@H](c2ccoc2)N2C[C@@]3(CC[C@@H]12)CS[C@@]1(CC[C@H]2[C@H](C)CC[C@@H](c4ccoc4)N2C1)C3 [THIOBINUPHARIDINE]	6.9	-11.7	6.3	7.9	4.4	10.9	9.9	6.8											
C[C@@H]1CC[C@@H](c2ccoc2)N2C[C@]3(CC[C@@H]12)CS[C@]1(CC[C@H]2[C@H](C)CC[C@@H](c4ccoc4)N2C1)C3 [NEOTHIOBINUPHARIDINE]	-1.2	38	-0.8	4	30.2	40.1	-3.4	8.9	-8.9	65.6	50.7	5.4	5.2	-1	7.5	-4.1	4.4	24.7	
C[C@@H]1CC[C@@H](c2ccoc2)N2C[C@@]3(CC[C@@H]12)CS[C@]1(CC[C@H]2[C@H](C)CC[C@@H](c4ccoc4)N2C1)C3 [THIONUPHLUTINE B]	9.1	-12	0.9	-2.2	2.2	7.8	-10.8	1.7											
C[C@@H]1CC[C@@H](c2ccoc2)N2C[C@@]3(CC[C@@H]12)C[S+]([O-])[C@]1(CC[C@H]2[C@H](C)CC[C@@H](c4ccoc4)N2C1)C3 (stereo not given in full)	4.7	-4.4	-8.1	3.2	10.8	6.3	-6.1	10.4											
C[C@@H]1CC[C@@H](c2ccoc2)N2C[C@@]3(CC[C@@H]12)CS[C@@]1(CC[C@H]2[C@H](C)CC[C@@H](c4ccoc4)N2[C@@H]1O)C3	-1	99.2	15.7	20.8	98.7	94.3	5.4	11.1	27.3	92.5	83.2	1.3	3.6	1.6	97.5	8.3	10.3	97.3	inhibition at 0.1 µM (HT-1080 [13]): 1.8%; Activity (U-937 [24]): Active; inhibition at 10 µM (B16-F10 [14]): 88.6%; inhibition at 1 µM (HT-1080 [18]): 14%; inhibition at 10 µM (HT-1080 [23]): 96.1%
C[C@@H]1CC[C@@H](c2ccoc2)N2[C@H]1CC[C@@]1(CS[C@@]3(CC[C@H]4[C@H](C)CC[C@@H](c5ccoc5)N4[C@@H]3O)C1)[C@H]2O	1.3	75.3	-0.9	-6	54.8	81.6	0.1	-3.5	-15	80	54.7	2.3	5.3	9	75	0.5	-8	51.8	inhibition at 10 µM (B16-F10 [14]): 16.6%; inhibition at 10 µM (HT-1080 [23]): 19.3%
